The text below walks through data of patent US9102621B2, “Acyl sulfonamide compounds” (Pfizer Limited, priority 2010, dated 2015).

Counter-ions that a name gives are not always drawn.

This assay deals with T1, Nav1.7 (or SCN9A) channel (Homo sapiens, UniProt Q15858).
T1 construct: expressed in transfected cells
T1 sequence (Q15858 whole entry): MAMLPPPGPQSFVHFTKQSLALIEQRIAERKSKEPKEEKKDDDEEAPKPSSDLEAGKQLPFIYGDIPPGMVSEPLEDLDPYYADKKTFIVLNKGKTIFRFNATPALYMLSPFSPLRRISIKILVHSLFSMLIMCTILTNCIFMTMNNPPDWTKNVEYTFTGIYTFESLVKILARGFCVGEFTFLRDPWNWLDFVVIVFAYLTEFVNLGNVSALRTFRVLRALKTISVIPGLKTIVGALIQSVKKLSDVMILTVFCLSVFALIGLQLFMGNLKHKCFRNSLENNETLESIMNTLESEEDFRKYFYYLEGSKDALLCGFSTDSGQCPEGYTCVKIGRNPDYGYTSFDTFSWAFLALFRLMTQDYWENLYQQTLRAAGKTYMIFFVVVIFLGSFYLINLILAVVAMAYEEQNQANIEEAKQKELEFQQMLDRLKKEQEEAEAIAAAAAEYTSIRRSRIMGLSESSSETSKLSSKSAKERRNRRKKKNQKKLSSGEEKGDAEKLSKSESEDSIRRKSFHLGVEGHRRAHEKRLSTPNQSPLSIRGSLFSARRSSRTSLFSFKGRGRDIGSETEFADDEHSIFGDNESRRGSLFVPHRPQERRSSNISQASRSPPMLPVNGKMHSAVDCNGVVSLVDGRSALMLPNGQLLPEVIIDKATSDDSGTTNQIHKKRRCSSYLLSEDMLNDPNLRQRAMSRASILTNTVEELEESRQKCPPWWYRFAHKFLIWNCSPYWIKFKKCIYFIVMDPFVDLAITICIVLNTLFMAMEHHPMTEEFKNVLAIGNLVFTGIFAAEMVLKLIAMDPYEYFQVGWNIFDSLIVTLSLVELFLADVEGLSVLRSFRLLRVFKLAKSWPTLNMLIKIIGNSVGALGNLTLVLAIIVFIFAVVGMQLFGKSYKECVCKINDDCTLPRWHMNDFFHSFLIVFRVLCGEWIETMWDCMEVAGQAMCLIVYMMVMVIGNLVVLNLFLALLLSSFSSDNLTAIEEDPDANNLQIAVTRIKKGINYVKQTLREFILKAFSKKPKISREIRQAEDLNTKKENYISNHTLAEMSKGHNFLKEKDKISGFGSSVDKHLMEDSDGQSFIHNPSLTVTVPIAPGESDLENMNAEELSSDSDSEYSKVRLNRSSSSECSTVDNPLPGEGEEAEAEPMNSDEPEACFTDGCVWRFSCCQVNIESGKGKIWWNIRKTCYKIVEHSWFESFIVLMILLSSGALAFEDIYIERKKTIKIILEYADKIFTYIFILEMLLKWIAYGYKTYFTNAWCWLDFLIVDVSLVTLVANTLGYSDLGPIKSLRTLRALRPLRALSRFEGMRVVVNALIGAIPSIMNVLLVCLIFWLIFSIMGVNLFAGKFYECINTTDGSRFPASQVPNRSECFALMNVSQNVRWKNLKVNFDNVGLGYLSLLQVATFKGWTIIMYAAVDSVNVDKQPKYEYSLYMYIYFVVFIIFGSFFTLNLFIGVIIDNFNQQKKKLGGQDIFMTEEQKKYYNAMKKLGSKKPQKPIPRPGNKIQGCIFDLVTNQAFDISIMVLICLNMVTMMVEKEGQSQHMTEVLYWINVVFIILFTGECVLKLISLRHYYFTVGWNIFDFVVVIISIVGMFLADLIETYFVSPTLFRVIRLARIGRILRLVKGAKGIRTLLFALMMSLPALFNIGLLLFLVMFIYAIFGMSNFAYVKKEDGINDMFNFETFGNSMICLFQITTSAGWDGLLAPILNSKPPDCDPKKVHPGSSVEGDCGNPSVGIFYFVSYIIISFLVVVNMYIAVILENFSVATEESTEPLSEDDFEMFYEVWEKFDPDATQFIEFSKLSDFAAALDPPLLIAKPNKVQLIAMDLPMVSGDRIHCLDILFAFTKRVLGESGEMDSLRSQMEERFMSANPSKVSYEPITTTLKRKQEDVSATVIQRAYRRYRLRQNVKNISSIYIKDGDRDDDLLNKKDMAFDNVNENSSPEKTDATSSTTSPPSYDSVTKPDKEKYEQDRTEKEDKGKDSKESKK
Briefly: Nav1.7 (hSCN9A) channel block, PatchXpress whole-cell electrophysiology. The note with it: PatchXpress platform; HEK cells stably transfected with hSCN9A; estimated IC-50 calculated from single point % inhibition at V1/2; read-out: Nav1.7 EIC50. Type of assay: cell-based. As for the experimental part: The ability of the compounds of formula (I) to block the Nav1.7 (or SCN9A) channel were measured using the assay described below.
Human Embryonic Kidney (HEK) cells were transfected with an hSCN9A construct using lipofectamine reagent (Invitrogen), using standard techniques. Cells stably expressing the hSCN9A constructs were identified by their resistance to G-418 (400 μg/ml). Clones were screened for expression using the whole-cell voltage-clamp technique.
HEK cells stably transfected with hSCN9A were maintained in DMEM medium supplemented with 10% heat-inactivated fetal bovine serum and 400 μg/ml G-418 in an incubator at 37° C. with a humidified atmosphere of 10% CO2. For HTS, cells were harvested from flasks by trypsinization and replated in an appropriate multi-well plate (typically 96 or 384 wells/plate) such that confluence would be achieved within 24 hours of plating. For electrophysiological studies, cells were removed from the culture flask by brief trypsinization and re-plated at low density onto glass cover slips. Cells were typically used for electrophysiological experiments within 24 to 72 hours after plating.
Cover slips containing HEK cells expressing hSCN9A were placed in a bath on the stage of an inverted microscope and perfused (approximately 1 ml/minutes) with extracellular solution of the following composition: 138 mM NaCl, 2 mM CaCl2, 5.4 mM KCl, 1 mM MgCl2, 10 mM glucose, and 10 mM HEPES, pH 7.4, with NaOH. […] The osmolarity of the extracellular and intracellular solutions was 300 mOsm/kg and 295 mOsm/kg, respectively. All recordings were made at room temperature (22-24° C.) using AXOPATCH 200B amplifiers and PCLAMP software (Axon Instruments, Burlingame, Calif.).
hSCN9A currents in HEK cells were measured using the whole-cell configuration of the patch-clamp technique (Hamill et al., 1981). Uncompensated series resistance was typically 2 to 5 mega ohms and >85% series resistance compensation was routinely achieved. As a result, voltage errors were negligible and no correction was applied. Current records were acquired at 20 to 50 KHz and filtered at 5 to 10 KHz.
HEK cells stably transfected with hSCN9A were viewed under Hoffman contrast optics and placed in front of an array of flow pipes emitting either control or compound-containing extracellular solutions. All compounds were dissolved in dimethyl sulfoxide to make 10 mM stock solutions, which were then diluted into extracellular solution to attain the final concentrations desired. […] The voltage-dependence of inactivation was determined by applying a series of depolarizing prepulses (8 sec long in 10 mV increments) from a negative holding potential. The voltage was then immediately stepped to 0 mV to assess the magnitude of the sodium current. Currents elicited at 0 mV were plotted as a function of prepulse potential to allow estimation of the voltage at which 50% of the channels were inactivated (midpoint of inactivation or V1/2). Compounds were tested for their ability to inhibit hSCN9A sodium channels by activating the channel with a 20 msec voltage step to 0 mV following an 8 second conditioning prepulse to the empirically determined V1/2. Compound effect (% inhibition) was determined by difference in current amplitude before and after application of test compounds. […] Inhibition values <20% and >80% were excluded from the calculation.
Electrophysiological assays were conducted with PatchXpress 7000 hardware and associated software (Molecular Devices Corp). All assay buffers and solutions were identical to those used in conventional whole-cell voltage clamp experiments described above. hSCN9A cells were grown as above to 50%-80% confluency and harvested by trypsinization. Trypsinized cells were washed and resuspended in extracellular buffer at a concentration of 1×10^6 cells/ml. The onboard liquid handling facility of the PatchXpress was used for dispensing cells and application of test compounds. […]
As to `CS(=O)(=O)NC(=O)c1cc(Cl)c(COc2cnc(OC(C(F)(F)F)C(F)(F)F)c(Cl)c2)cc1F` [Example 30, 5-Chloro-4-((5-chloro-6-(1,1,1,3,3,3-hexafluoropropan-2-yloxy)pyridin-3-yloxy)methyl)-2-fluoro-N-(methylsulfonyl)benzamide], the IC50 was less than 0.1 µM.

As for `CC(Oc1ncc(OCc2cc(F)c(C(=O)NS(C)(=O)=O)cc2Cl)cc1Cl)C(F)(F)F` (centres unmarked) [Example 31, 5-Chloro-4-((5-chloro-6-(1,1,1-trifluoropropan-2-yloxy)pyridin-3-yloxy)methyl)-2-fluoro-N-(methylsulfonyl)benzamide], the IC50 was less than 0.1 µM.

`[2H]C([2H])([2H])C(Oc1ncc(OCc2cc(F)c(C(=O)NS(C)(=O)=O)cc2Cl)cc1Cl)(C([2H])([2H])[2H])C([2H])([2H])[2H]` [Example 32, 4-{[(6-d9-tert-Butoxy-5-chloropyridin-3-yl)oxy]methyl}-5-chloro-2-fluoro-N-(methylsulfonyl)benzamide]: the IC50 is 0.011 µM. As for `COc1ncc(OCc2cc(F)c(C(=O)NS(C)(=O)=O)cc2Cl)cc1Cl` [Example 33, 5-Chloro-4-{[(5-chloro-6-methoxypyridin-3-yl)oxy]methyl}-2-fluoro-N-(methylsulfonyl)benzamide], the IC50 was 0.38 µM. Under `[2H]C(C)(C)Oc1ncc(OCc2cc(F)c(C(=O)NS(C)(=O)=O)cc2Cl)cc1Cl` [Example 34, 5-Chloro-4-{[(5-chloro-6-d1-isopropoxypyridin-3-yl)oxy]methyl}-2-fluoro-N-(methylsulfonyl)benzamide] stands 0.0822 µM; under `CC(C)Oc1ncc(OCc2cc(F)c(C(=O)NS(C)(=O)=O)cc2Cl)cc1Cl` [Example 35, 5-Chloro-4-((5-chloro-6-isopropoxypyridin-3-yloxy)methyl)-2-fluoro-N-(methylsulfonyl)benzamide], 0.028 µM.

Regarding `CC(C)C(F)(F)c1ncc(OCc2cc(F)c(C(=O)NS(C)(=O)=O)cc2Cl)cc1Cl` [Example 36, 5-Chloro-4-({[5-chloro-6-(1,1-difluoro-2-methylpropyl)pyridin-3-yl]oxy}methyl)-2-fluoro-N-(methylsulfonyl)benzamide], the IC50 is 0.0527 µM. Take `CS(=O)(=O)NC(=O)c1cc(Cl)c(COc2cnc(OCC(F)(F)C(F)F)c(Cl)c2)cc1F` [Example 37, 5-Chloro-4-({[5-chloro-6-(2,2,3,3-tetrafluoropropoxy)pyridin-3-yl]oxy}methyl)-2-fluoro-N-(methylsulfonyl)benzamide]: the IC50 was 0.0091 µM. With `CC(C)(C)c1ncc(OCc2cc(F)c(C(=O)NS(C)(=O)=O)cc2Cl)cc1Cl` [Example 38, 4-{[(6-tert-Butyl-5-chloropyridin-3-yl)oxy]methyl}-5-chloro-2-fluoro-N-(methylsulfonyl)benzamide], the IC50 is 0.0215 µM. Regarding `[2H]C([2H])([2H])C([2H])(Oc1ncc(OCc2cc(F)c(C(=O)NS(C)(=O)=O)cc2Cl)cc1Cl)C([2H])([2H])[2H]` [Example 39, 5-Chloro-4-{[(5-chloro-6-d7-isopropoxypyridin-3-yl)oxy]methyl}-2-fluoro-N-(methylsulfonyl)benzamide], the IC50 is 0.0399 µM. Consider `CS(=O)(=O)NC(=O)c1cc(Cl)c(COc2cnc(OC(F)F)c(Cl)c2)cc1F` [Example 41, 5-Chloro-4-({[5-chloro-6-(difluoromethoxy)pyridin-3-yl]oxy}methyl)-2-fluoro-N-(methylsulfonyl)benzamide], for which the IC50 was 0.0623 µM. In the case of `CS(=O)(=O)NC(=O)c1cc(Cl)c(COc2cnc(C3CC3)c(Cl)c2)cc1F` [Example 42, 5-Chloro-4-{[(5-chloro-6-cyclopropylpyridin-3-yl)oxy]methyl}-2-fluoro-N-(methylsulfonyl)benzamide] it was 0.0518 µM; in that of `CS(=O)(=O)NC(=O)c1cc(Cl)c(COc2cnc(OCC(F)(F)F)c(Cl)c2)cc1F` [Example 43, 5-Chloro-4-({[5-chloro-6-(2,2,2-trifluoroethoxy)pyridin-3-yl]oxy}methyl)-2-fluoro-N-(methylsulfonyl)benzamide], 0.0425 µM.

Consider `CS(=O)(=O)NC(=O)c1cc(Cl)c(COc2cnc(OCCC(F)(F)F)c(Cl)c2)cc1F` [Example 44, 5-Chloro-4-({[5-chloro-6-(3,3,3-trifluoropropoxy)pyridin-3-yl]oxy}methyl)-2-fluoro-N-(methylsulfonyl)benzamide], for which the IC50 is 0.0258 µM. As to `CC(C)(F)COc1ncc(OCc2cc(F)c(C(=O)NS(C)(=O)=O)cc2Cl)cc1Cl` [Example 45, 5-Chloro-4-({[5-chloro-6-(2-fluoro-2-methylpropoxy)pyridin-3-yl]oxy}methyl)-2-fluoro-N-(methylsulfonyl)benzamide], the IC50 is 0.0582 µM.

With `CS(=O)(=O)NC(=O)c1cc(Cl)c(COc2cnc(OCC(F)(F)C(F)(F)F)c(Cl)c2)cc1F` [Example 46, 5-Chloro-4-({[5-chloro-6-(2,2,3,3,3-pentafluoropropoxy)pyridin-3-yl]oxy}methyl)-2-fluoro-N-(methylsulfonyl)benzamide], the IC50 is 0.018 µM. In the case of `COc1cc(COc2cnc(OCC(C)C)c(Cl)c2)ccc1C(=O)NS(C)(=O)=O` [Example 47, 4-{[(5-Chloro-6-isobutoxypyridin-3-yl)oxy]methyl}-2-methoxy-N-(methylsulfonyl)benzamide] it was 4.39 µM; in that of `COc1cc(COc2cnc(OC(C)C)c(Cl)c2)ccc1C(=O)NS(C)(=O)=O` [Example 48, 4-{[(5-Chloro-6-isopropoxypyridin-3-yl)oxy]methyl}-2-methoxy-N-(methylsulfonyl)benzamide], greater than 3 µM. On to `CC(C)(Oc1ncc(OCc2cc(F)c(C(=O)NS(C)(=O)=O)cc2F)cc1Cl)C(F)(F)F` [Example 49, 4-({[5-Chloro-6-(2,2,2-trifluoro-1,1-dimethylethoxy)pyridin-3-yl]oxy}methyl)-2,5-difluoro-N-(methylsulfonyl)benzamide], for which the IC50 is 0.0097 µM. On to `CC(C)c1ncc2ncc(COc3cc(F)c(C(=O)NS(C)(=O)=O)cc3Cl)cn12` [Example 50], for which the IC50 is greater than 3 µM. Under `COc1ncc(COc2ccc(C(=O)NS(C)(=O)=O)cc2Cl)cc1Cl` [Example 51] stands 6.23 µM; under `CS(=O)(=O)NC(=O)c1ccc(COc2cccc3cnccc23)cc1` [Example 52], greater than 3 µM. For the compound `CS(=O)(=O)NC(=O)c1ccc(COc2ccc3ccncc3c2)cc1` [Example 53], the IC50 was greater than 3 µM. Consider `CS(=O)(=O)NC(=O)c1cc(F)c(COc2cc(C(F)(F)F)c(Cl)cn2)cc1F` [Example 55, 4-({[5-Chloro-4-(trifluoromethyl)pyridin-2-yl]oxy}methyl)-2,5-difluoro-N-(methylsulfonyl)benzamide], for which the IC50 was greater than 1 µM.

Turning to `CS(=O)(=O)NC(=O)c1cc(F)c(COc2ccc(C(F)(F)F)cn2)cc1F` [Example 56, 2,5-Difluoro-N-(methylsulfonyl)-4-({[5-(trifluoromethyl)pyridin-2-yl]oxy}methyl)benzamide], the IC50 is 6.72 µM. Under `CS(=O)(=O)NC(=O)c1cc(Cl)c(COc2cnc(C3CC3)c(C3CC3)c2)cc1F` [Example 57, 5-Chloro-4-{[(5,6-dicyclopropylpyridin-3-yl)oxy]methyl}-2-fluoro-N-(methylsulfonyl)benzamide diethylamine salt.] stands 0.153 µM.
